Assay results as given in patent US11014955B2, “Cyclic peroxides as prodrugs for selective delivery of agents” (THE REGENTS OF THE UNIVERSITY OF CALIFORNIA, priority 2014, dated 2021).

Test system: P. falc FCB
Test: Biological activity EC50, P. falc FCB
Type: cell-based
Settings: Plasmodium falciparum; Target (Cell Line): P. falc FCB

EC50	Compound
17.9 nM	CN(C)c1cccc2c(S(=O)(=O)OC34CC5CC(C3)C3(OOC6(CCCCC6)O3)C(C5)C4)cccc12 (centres unmarked) [Example 18, dispiro[adamantane-2,2′-[1,3,5]trioxolane-4′,1″-cyclohexane]-7-yl 5-(dimethylamino)naphthalene-1-sulfonate]
14.6 nM	CN(C)c1cccc2c(S(=O)(=O)NCCCNC3CCC4(CC3)OOC3(O4)C4CC5CC(C4)CC3C5)cccc12 (centres unmarked) [Example 19, 5-(dimethylamino)-N-[3-({dispiro[adamantane-2,2′-[1,3,5]trioxolane-4′,1″-cyclohexane]-4″-yl}amino)propyl]naphthalene-1-sulfonamide]
